Data on 51 molecules can be found in PubChem BioAssay AID1996.

Values after ≈ are worked out from the molar mass of the structure shown.

The conditions of this data set: buffer; pH 7.4; 200.0 µM.
A word on the kinetic solubility: it is the concentration staying in solution when a stock, usually in DMSO, is diluted into the medium. With `O=C(O)C(=O)O.c1ccc2c(CCNC3CCCCC3)c[nH]c2c1`, the kinetic solubility was above 49.9 µg/mL.
Next, `O=C(NC(=S)NCc1ccccc1)c1cccs1`: 1.4 µg/mL (≈ 5.07 µM); `CC1(C)C[C@@H]2C[C@@](C)(CN2C(=O)c2ccccc2)C1`: 36.5 µg/mL (≈ 142 µM).
Next, `O=C(Cc1ccccc1)Nc1cccc(NC(=O)c2ccccc2)c1`: 1.5 µg/mL (≈ 4.54 µM).
In the case of `COc1ccc(/C=C/C2=CC(C)(C)NC(=S)N2)cc1`, the kinetic solubility turned out to be 9.4 µg/mL (≈ 34.3 µM).
The figure for `Cc1ccc(C)c(S(=O)(=O)N2CCCN(C)CC2)c1` is above 42.4 µg/mL; for `CCCC(=O)N1CCC(Cc2ccccc2)CC1` it is above 36.8 µg/mL.
Consider `CCOC(=O)c1sc(N)c(C#N)c1COC(=O)C1=COCCO1`, for which the solubility (kinetic) is 11.6 µg/mL (≈ 34.3 µM).
The figure for `COc1ccc(C(=O)NC2CC3CCCC(C2)N3CC(C)C)cc1` (stereo unspecified) is above 49.6 µg/mL; for `Cc1nc(-c2ccccc2)sc1C(=O)/C=C/N(C)C` it is 36.3 µg/mL (≈ 133 µM); for `CCCCC(=O)N1CCN(c2nc3ccc(F)cc3s2)CC1` it is 44.2 µg/mL (≈ 138 µM).
The figure for `O=C(O)/C=C/c1ccc(S(=O)(=O)NCc2cccnc2)cc1` is above 47.8 µg/mL.
Next, `COc1cccc(N2CCN(Cc3ccco3)CC2)c1`: 30.8 µg/mL (≈ 113 µM); `CC(C)(C)c1ccc(C(=O)NC(=O)CSc2n[nH]c(N)n2)cc1`: above 50 µg/mL; `CCn1c(NC(C)=O)c(-c2ccccc2Cl)c(=O)c2ccccc21`: 49.5 µg/mL (≈ 145 µM).
On to `Cc1nccn1CC1CCc2c(c3ccccc3n2C)C1=O.Cl` (stereo unspecified), for which the solubility (kinetic) worked out at 47.7 µg/mL.
Next, `O=C(c1ccc([N+](=O)[O-])cc1)N1CCN(C(=O)c2cccnc2)CC1`: above 51.1 µg/mL.
With `CN1CCN(C(=O)c2cc3cc(F)ccc3[nH]2)CC1`, the kinetic solubility is above 39.2 µg/mL.
Next, `CCOC(=O)C1=C(C)NC(=O)CC1c1ccccc1OC` (stereo unspecified): 36.8 µg/mL (≈ 127 µM); `O=C(CCNC(=O)c1ccccc1)Nc1ccc(S(=O)(=O)Nc2ncccn2)cc1`: above 63.8 µg/mL; `CCOC(=O)c1sc(=NC(=O)/C=C/c2ccccc2)n(C)c1C`: below 0.4 µg/mL.
For the molecule `CCN(CC)S(=O)(=O)c1cccc(-c2csc(C)n2)c1`, the kinetic solubility was found to be 37.8 µg/mL (≈ 122 µM).
On to `O=S(=O)(c1ccc(Cl)cc1)N1CCCC1c1cccnc1` (stereo unspecified), for which the kinetic solubility is above 48.4 µg/mL.
The figure for `O=C(CSc1nnc(-c2ccccn2)o1)Nc1ccccc1` is above 46.9 µg/mL.
The figure for `CC(=O)Nc1ccc(CN2CCCCCC2)cc1` is 33.9 µg/mL (≈ 138 µM); for `CC(=O)Nc1ccc(NC(=O)c2ccc(OCc3c(C)noc3C)cc2)cc1` it is 2.2 µg/mL (≈ 5.8 µM).
As for `Cc1csc(NC(=O)Cc2ccc(Cl)cc2)n1`, the solubility (kinetic) was determined as 22.2 µg/mL (≈ 83.2 µM).
Next, `CCCCN1C(=O)C(=O)N(CC(=O)NC2CCCc3ccccc32)C1=O` (stereo unspecified): 50.9 µg/mL (≈ 142 µM); `CC(Sc1nc(-c2ccco2)nc2c1c(=O)n(C)c(=O)n2C)C(=O)O` (stereo unspecified): above 54.4 µg/mL; `O=C(NC1CCC(O)CC1)c1cc(Cl)c2c(c1)OCCO2` (stereo unspecified): 35.6 µg/mL (≈ 114 µM).
Next, `Fc1cc2[nH]cnc2cc1Cl`: above 25.6 µg/mL.
Next, `O=C(NC(Cc1ccccc1)C(=O)O)c1cccnc1Cl` (stereo unspecified): 35 µg/mL (≈ 115 µM).
For the molecule `Cc1c(NC(=O)[C@@H](NC(=O)c2ccc(Cl)c([N+](=O)[O-])c2)C(C)C)c(=O)n(-c2ccccc2)n1C`, the kinetic solubility is above 72.9 µg/mL.
The figure for `CC(=C\c1ccccc1)/C=C1/SC(=S)N(CCC(=O)O)C1=O` is 34.7 µg/mL (≈ 104 µM).
Regarding `CC1CCCCN1C(=S)NC(=O)c1ccco1` (stereo unspecified), the kinetic solubility was above 37.8 µg/mL.
Next, `CCCC(=O)Nc1cc(C(=O)O)ccc1Sc1ccc(C)cc1`: above 49.4 µg/mL; `O=C(Nc1cccc2ncccc12)c1ccc([N+](=O)[O-])o1`: above 42.5 µg/mL.
The figure for `Cc1ccc(S(=O)(=O)N(C)C)cc1NC(=O)c1sccc1Cl` is 2.4 µg/mL (≈ 6.69 µM); for `O=C(NC(=O)N1CCSCC1)c1c(Cl)cccc1Cl` it is above 47.9 µg/mL; for `COc1ccc(Cl)cc1NC(=S)NCc1cccs1` it is 37.3 µg/mL (≈ 119 µM).
In turn, `CCOC(=O)c1ccc2[nH]c3c(c2c1)CCCC3O` (stereo unspecified) had a solubility (kinetic) above 38.9 µg/mL.
`C(=C\c1nc(-c2cccnc2)no1)/c1ccccc1` had a solubility (kinetic) of 3.4 µg/mL (≈ 13.6 µM).
The figure for `Cc1nc(NS(=O)(=O)c2cccc([N+](=O)[O-])c2)sc1C(C)(C)C` is 5.4 µg/mL (≈ 15.2 µM); for `Cc1cc(Br)cc(Cl)c1OC(=O)c1ccncc1` it is 9.5 µg/mL (≈ 29.1 µM).
The figure for `O=C(O/N=C1/CCCc2occc21)c1ccc(F)cc1` is 0.9 µg/mL (≈ 3.29 µM); for `COc1ccc(C)cc1NC(=O)C1CC(=O)N(CCc2ccccc2)C1` (stereo unspecified) it is above 52.9 µg/mL; for `COc1ccc(OC)c(/C=C/C(=O)OCC(=O)NCc2ccccc2)c1` it is 15.1 µg/mL (≈ 42.5 µM).
The figure for `CC1CN(C(=O)c2cccc(Oc3ccccc3)c2)CC(C)O1` (stereo unspecified) is above 46.7 µg/mL; for `CCc1ccc(NC(=O)c2cc(C)no2)cc1` it is 14.3 µg/mL (≈ 62.1 µM).
`Cn1cc(C(=O)C(=O)N2CCCC2)c2ccccc21` had a kinetic solubility above 38.4 µg/mL.
Next, `Cc1ccc(C)c(C(C)NC(=S)NCc2ccc(F)cc2)c1` (stereo unspecified): 1.4 µg/mL (≈ 4.42 µM).
